Test results as given in a melting point compilation (Tetko et al.; mined from patent text by program, amines drawn as free bases though some values may be those of a salt).

First: O=C1c2cc(Br)ccc2-n2c1nc1ccccc1c2=O
Second: Nc1ccc2c(=O)n3c(nc2c1)C(=Cc1ccc(C(=O)O)cc1)CC3
The melting point of the first is lower: 288 to 290 °C for the first, 336 to 339 °C for the second.

Compared with `COc1ccc2c(c1)CC[C@H](CN1CCC3(CC1)C(=O)NCN3c1ccccc1)[C@@H]2O` (relative stereo), `c1ccc2c(c1)-c1ccccc1C2CN1CCCCC1` is lower in melting point: 182 to 183 °C for the first, 118 to 119 °C for the second.

First: Cc1nn(-c2cc([N+](=O)[O-])c(Cl)cc2F)c(Cl)c1Br
Second: Cn1c(C(F)(F)F)cc(=O)n(-c2nc(Cl)c(C#N)cc2F)c1=O
The melting point of the first is lower: 135 to 137 °C for the first, 146 to 148 °C for the second.

First: CN1C(=O)CC[C@]2(C)c3ccc(-c4cc(C(F)(F)F)cc(C(F)(F)F)c4)cc3CC[C@@H]12
Second: Cc1cc(=O)n2c3c(cc(C(O)(C(F)(F)F)C(F)(F)Cl)cc13)CC2 (stereo not drawn)
The melting point of the first is lower: 110 to 112 °C for the first, 160 to 164 °C for the second.

First: O=C1Oc2ccc(Br)cc2C1c1ccc(Cl)cc1Cl (stereo not drawn)
Second: CCCCOc1ccc2cc(Br)ccc2c1
The melting point of the first is higher: 149 to 150 °C for the first, 48 to 50 °C for the second.

First: OC(CN1CCNC1=S)c1cccc(Cl)c1 (stereo not drawn)
Second: S=C1C[C@@H](SCc2ccccc2)CN1
The melting point of the first is higher: 128 °C for the first, 86 to 88 °C for the second.

First: CCCCNc1cc(CN)cc(S(N)(=O)=O)c1Oc1ccccc1
Second: COc1ccc(O)c(NC(=O)C(Br)c2ccccc2)c1 (stereo not drawn)
The melting point of the first is higher: 195 to 198 °C for the first, 145 to 147 °C for the second.

Compared with `O=C(SCC(=O)N1c2ccccc2CCC1C(=O)O)c1ccccc1` (stereo not drawn), `O=C(CCSC(=O)c1ccccc1)N[C@@H](Cc1c[nH]cn1)C(=O)O` is higher in melting point: 164 to 168 °C for the first, 170 to 171 °C for the second.

First: CN(Cc1cc2cc([N+](=O)[O-])ccc2o1)C1Cc2ccc([N+](=O)[O-])cc2C1 (stereo not drawn)
Second: O=C(Nc1ccc([N+](=O)[O-])cc1)N(O)C1CCCCCCC1
The melting point of the first is lower: 109 to 111 °C for the first, 143 to 144 °C for the second.

Compared with `COc1cccc2sc(C3CCNC(C)C3)cc12` (stereo not drawn), `COc1ccc2c(c1)C1=C(CC2)NC(=O)CC1` is higher in melting point: 70 to 73 °C for the first, 227 to 228 °C for the second.

First: O=C1NCCc2sccc21
Second: O=C(O)c1cc2sccc2cn1
The melting point of the first is lower: 94 °C for the first, 212 °C for the second.

First: COc1ccc(C(C(=O)OC(C)(C)C)N(C(=O)CNC(=O)Nc2cccc(C)c2)c2ccccc2)cc1 (racemic)
Second: CCOC(=O)c1ccc(NCC(C)Oc2cccc3ccccc23)cc1 (stereo not drawn)
The melting point of the first is higher: 206 °C for the first, 110 to 112 °C for the second.

First: COc1ccc(-c2ccc(O)c(C3(C)CCCCC3)c2)cc1CC1SC(N2CCCC2)=NC1=O (stereo not drawn)
Second: COc1cc2ncc(NC3CCCCC3)nc2cc1N1CCOCC1
The melting point of the first is lower: 121 to 122 °C for the first, 194 to 196 °C for the second.

First: CCCCc1nc(Cl)c(CO)n1Cc1ccc(-c2cccc(C(=O)O)c2)cc1
Second: CCCC(=O)NCCc1cc(-c2cccc(C(=O)OC)c2)cc2ccc(OC)cc12
The melting point of the first is higher: 180 to 181 °C for the first, 86 to 88 °C for the second.

First: Cc1ccncc1C(O)c1ccc2cc(CO)ccc2c1 (stereo not drawn)
Second: Oc1ccc2c(-c3ccc4c(O)cccc4c3)noc2c1
The melting point of the first is lower: 151 to 153 °C for the first, 275 to 277 °C for the second.

First: CNC(=O)N(OC(=O)OC)c1ccc(Cl)cc1
Second: Cc1ccnc(C(=O)c2[nH]c3cc(Cl)ccc3c2NC(=O)CCN(C)C)c1
The melting point of the first is lower: 145 to 146 °C for the first, 170 to 171 °C for the second.

First: OC(COc1ccc(F)cc1)CN1CCC(O)(c2ccc(Cl)cc2)CC1 (stereo not drawn)
Second: CCOCCn1c(CN2CCN(CC(O)COc3ccccc3)CC2)nc2cccnc21 (stereo not drawn)
The melting point of the first is higher: 103 to 105 °C for the first, 102 °C for the second.

First: COC(=O)C(=C(C)NCC(O)CO)c1nc(NC(C)=O)c([N+](=O)[O-])nc1Cl (stereo not drawn)
Second: CC(=O)Nc1cnc(-c2ccccc2)nc1Cl
The melting point of the first is lower: 70 to 73 °C for the first, 179 to 180 °C for the second.

First: Cn1c(C(F)(F)F)cc(=O)n(-c2ccc3snc(CN(C(=O)OC(C)(C)C)S(C)(=O)=O)c3c2)c1=O
Second: Cn1c(C(F)(F)F)cc(=O)n(-c2ccc3snc(C(Cl)Br)c3c2)c1=O (stereo not drawn)
The melting point of the first is higher: 109 to 111 °C for the first, 93 to 96 °C for the second.

First: Cc1ccc(Cn2[nH]c(N)cc2=O)cc1
Second: COc1ccc(CSc2ccc(S(N)(=O)=O)s2)cc1
The melting point of the first is higher: 149 °C for the first, 139 to 141 °C for the second.

First: CCc1cc2c(cc1OCc1ccccc1)CCC1C2CCC2(C)C(CCO[Si](c3ccccc3)(c3ccccc3)C(C)(C)C)CCC12 (stereo not drawn)
Second: COc1cc(COc2cc(CO)n(-c3ccccc3)n2)ccc1OCc1nc(-c2ccccc2)oc1C
The melting point of the first is lower: 48 to 50 °C for the first, 146 to 147 °C for the second.

First: COc1cc(Nc2nccc(-c3ccc(-c4nnn[nH]4)cc3)n2)cc(OC)c1OC
Second: COc1cc(N(C)c2nccc(-c3ccncc3)n2)cc(OC)c1OC
The melting point of the first is higher: 246 to 247 °C for the first, 139 °C for the second.

Compared with `Cc1ccccc1NC(=O)CN1CC2CCC(C1)N2S(=O)(=O)c1cccc(C#N)c1`, `CS(=O)(=O)c1ccc(-n2nc(CNC(=O)NC3CCCCCC3)cc2-c2ccccc2)cc1` is lower in melting point: 166 to 168 °C for the first, 104 to 110 °C for the second.

First: OCC(O)Cc1ccc(Br)cc1 (stereo not drawn)
Second: O=C(O)CCNC(=O)C(CS)Cc1ccccc1 (stereo not drawn)
The melting point of the first is lower: 60.6 °C for the first, 76 to 82 °C for the second.

First: COC(=O)c1cc(O)nn1Cc1ccccc1
Second: CC(C)(COc1ccc(C(N)=O)cn1)NCc1ccccc1
The melting point of the first is lower: 82 to 84 °C for the first, 125 to 126 °C for the second.

First: CCOC(=O)CC1COc2c(OC)ccc(C(=O)Nc3ccccc3)c21 (stereo not drawn)
Second: CCOC(=O)c1cc(NC(=O)c2ccccc2OC(C)=O)cc(Cl)c1O
The melting point of the first is lower: 93 to 95 °C for the first, 163 to 166 °C for the second.

First: CC(C)(C)c1cc(CN)nn1-c1ccc(S(C)(=O)=O)cc1
Second: CC(C)(C)c1cc(-c2nn(CC(N)=O)c3ncccc23)cc(C(C)(C)C)c1O
The melting point of the first is lower: 138 to 145 °C for the first, 162 to 164 °C for the second.

Compared with `Cc1ccc(-c2ccc3c(c2)C=C(C(=O)Nc2ccc(CNc4ccccn4)cc2)CCO3)cc1`, `CN(Cc1ccc(NC(=O)C2=Cc3cc(-c4ccc(Cl)cc4)ccc3S(=O)(=O)CC2)cc1)C1CCC(=O)CC1` is higher in melting point: 189 to 190 °C for the first, 197 to 200 °C for the second.

First: CCc1nn2ccc3c(c2c1C(C)CNC(C)=O)CCO3 (stereo not drawn)
Second: COC(=O)c1ccc2c(CCC=O)nn(C)c2c1
The melting point of the first is higher: 151 to 153 °C for the first, 80 to 83 °C for the second.

Compared with `Cc1cnc2n(c1=O)CCC2`, `CC(=O)NC[C@H]1CN(c2ccc(C3CCOCC3)c(F)c2)C(=O)O1` is higher in melting point: 82 °C for the first, 191 to 192 °C for the second.

First: N=C1C2CC(F)CN2C(=O)CN1C1CCC(Cn2cncn2)C1 (stereo not drawn)
Second: CN1CCN(C2c3ccccc3CC2O)CC1 (stereo not drawn)
The melting point of the first is higher: 158 to 162 °C for the first, 132 °C for the second.

Compared with `COc1ccc(N2CCN(c3ccc(C)cc3)CC2)c(-c2ccc(N(C)C)cc2)n1`, `Cc1ccc(SCc2c(C(C)C)nc(C(C)C)c(CO)c2-c2ccc(F)cc2)cc1` is lower in melting point: 170 to 173 °C for the first, 90 to 91 °C for the second.

Compared with `CCOC(=O)COC1CCN(C(=O)[C@H](C)OCc2ccc(C(N)=NO)cc2)CC1`, `CCCCOc1cc2ccc(C(=O)O)cc2cc1OCCCC` is higher in melting point: 137 to 138 °C for the first, 168 to 169 °C for the second.

First: O=C(NN1CCN(CCc2c[nH]c3ccccc23)CC1)c1ccccc1
Second: CC1(CN2CCN(c3cccc4c3OCCO4)CC2)N=C(c2ccccc2)NC1=O (stereo not drawn)
The melting point of the first is higher: 227 to 229 °C for the first, 80 to 85 °C for the second.

Compared with `COc1ccc2c(c1)CC=C(C=Cc1ccc(C#N)cc1)O2`, `COc1ccc2c(c1)C(=O)OC2=O` is lower in melting point: 224 to 226 °C for the first, 89 to 94 °C for the second.

First: CCN(CC)C(=O)n1cc(F)c(S(=O)(=O)c2c(C)cc(C)cc2C)n1
Second: CCOC(=O)c1cnn(-c2cc(C)cc(C)c2)c1N
The melting point of the first is lower: 109 to 111 °C for the first, 113 to 114 °C for the second.

`CCC(Oc1ccccc1Cl)C(=O)OC1CC(O)C=C2C=CC(C)C(CCC3CC(O)CC(=O)O3)C21` (mixture of isomers) and `Cc1cc(NC(=O)c2ccccc2C)ccc1Br` cannot be ordered by melting point: 145 to 147 °C for the first, 144 to 146 °C for the second.

Compared with `CCOc1c(C#N)c(C#N)c(OCC)c2ccccc12`, `CN1Cc2c(c3ccccc3c3ccccc23)C1` is lower in melting point: 167 °C for the first, 122 to 123 °C for the second.

Compared with `O=C(O)C(=O)c1cnsn1`, `CC(CS)C(=O)N(CC(=O)O)c1ccccc1` (stereo not drawn) is higher in melting point: 130 to 133 °C for the first, 168 to 170 °C for the second.

First: Cc1nc2c(O)c(CCC(=O)c3ccccc3F)c(C(=O)N(C)C)cc2n1C
Second: O=C(O)c1c(Cc2ccccc2)nc2c(C(F)(F)F)cccc2c1O
The melting point of the first is lower: 218 to 221 °C for the first, 252 °C for the second.

First: O=C(c1ccc2c(c1)OC(c1cccc(Cl)c1)(c1cccc(Cl)c1)O2)N1CCCCC1
Second: O=C(NCc1ccc2c(c1)OCO2)c1ccc2[nH]c(=O)n(Cc3ccc(Cl)cc3)c(=O)c2c1
The melting point of the first is lower: 54 °C for the first, 290 °C for the second.

First: CC(=O)O[C@H](CC(=O)c1ccccc1)C(=O)O
Second: CC(C)(N)CNC(=O)CNC(=O)CNC(=O)Cc1ccccc1
The melting point of the first is lower: 118 to 121 °C for the first, 209 to 210 °C for the second.

Compared with `COCOCCCOn1cnc2cnc(N)nc21`, `Cc1nn(-c2ccc(C(F)(F)F)cn2)cc1CCCO` is higher in melting point: 80 to 81 °C for the first, 103 to 104 °C for the second.

First: c1cncc(C2=NNC(c3cccnc3)S2)c1 (stereo not drawn)
Second: Nc1ccc(-c2n[nH]c3c2Cc2ccccc2-3)cc1
The melting point of the first is lower: 77 to 78 °C for the first, 253 to 254 °C for the second.

First: CC(C)c1ccc(S(=O)(=O)n2c(Cc3cccc(C(=O)O)c3)cc3cc(Cl)ccc32)cc1
Second: CC(C)c1nc(CCCOCc2ccccc2)n(CCO)c1Sc1cc(Cl)cc(Cl)c1
The melting point of the first is higher: 170 °C for the first, 104 to 106 °C for the second.

First: C#CCOC(=O)c1cc(Br)c(O)c(OC)c1
Second: COc1cccc(OC)c1C(=O)Nc1nnc(C(C)(C)CSC)s1
The melting point of the first is lower: 121 to 122 °C for the first, 165 to 167 °C for the second.

First: Cc1cc(OCc2oc(-c3ccc(C(F)(F)F)cc3)nc2C)ccc1OCC(=O)O
Second: COc1nc(C)cnc1N(C(=O)OCC(C)C)S(=O)(=O)c1cccnc1-c1ccc([Si](C)(C)C)cc1
The melting point of the first is higher: 136 to 137 °C for the first, 132 to 134 °C for the second.

Compared with `CC(C)c1cccc(C(C)C)c1NC(=O)NCC1(SCc2ccccc2)CCCCC1`, `CC(c1cc(F)ccc1Oc1nc2ccc(-n3cc(-c4ccccc4)nn3)cc2cc1Cc1ccccc1)n1ccnc1` (stereo not drawn) is lower in melting point: 156 °C for the first, 118 to 120 °C for the second.

Compared with `CCOC(=O)c1sc(N)nc1C(C)C`, `CC1SC(=NO)C(C)(C)NC1=O` (stereo not drawn) is higher in melting point: 174 to 178 °C for the first, 199 to 202 °C for the second.

First: O=C(O)Cc1sccc1NC(=O)C(=O)NC(=O)c1ccco1
Second: C=Cc1ccc2c(c1)CC(NC(=O)OC(C)(C)C)CC2 (stereo not drawn)
The melting point of the first is higher: 169 °C for the first, 89 to 91 °C for the second.

First: CSc1ccc(-c2c(C#N)cnn2-c2ccc(F)cc2)cc1
Second: CC(O)(c1nc2cc([N+](=O)[O-])ccc2s1)C(F)(F)F (stereo not drawn)
The melting point of the first is higher: 122 to 123 °C for the first, 66 to 69 °C for the second.

Work on `CCNC(=S)n1nc(Oc2c(F)cc(C(F)(F)F)cc2Cl)cc1C` yielded a melting point of 114 to 115 °C.
